Assay results: US11311610B2, “Immune-modulating agents and uses therefor” (UNIVERSITY OF TECHNOLOGY SYDNEY, priority 2010, dated 2022)

B1: FhHDM-1: 90-residue polypeptide from F. hepatica, Helminth Defense Molecule-1 (SEQ ID NO:24); recombinant form minus N-terminal signal peptide, expressed in E. coli (protein, listed as Fasciola hepatica)
chain: MRFIVLLCLAEVLLAAYVEARPSEESREKLRESGRKMVKALRDAVTKAYEKARDRAMAYLAKDNLGEKITEVITILLNRLTDRLEKYAGN

Key:
[1] = test system: ATPase activity associated with lysosomal membranes (equivalent to vATPase activity); experiment: ATPase activity of enriched lysosomal membranes; format: biochemical, murine; settings: lysosomal membranes from RAW264.7 macrophage lysates
Description: FIG. 17 is a graphical representation showing that FhHDM-1 P3 inhibits ATPase activity associated with lysosomal membranes in a concentration-dependent manner. A cellular fraction enriched for lysosomes was prepared by sequential centrifugation of RAW264.7 macrophage lysates. The lysosomal membranes were recovered and assayed (with or without HDM peptides) for ATPase activity using a commercially available kit.
FIG. 18 is a diagrammatic representation showing a sequence alignment of various synthetic HDM peptides. The amphipathic helix is shaded in grey as are the mutated residues in peptides nonHP and 2Pro. NonHP is a variant of FhHDM-1 P3 in which the hydrophobic face of the FhHDM-1 amphipathic helix was removed. 2Pro is a variant of FhHDM-1 P3 in which two prolines substitutions were incorporated to disrupt the alpha-helix. Cons_p3 is a consensus peptide corresponding to various FhHDM-1 homologs. All peptides in the alignment were tested for their ability to inhibit the ATPase activity associated with enriched lysosomal membranes (prepared from RAW macrophages). Those with inhibitory activity are shown in bold text.
A cellular fraction enriched for lysosomes was prepared by sequential centrifugation of RAW264.7 macrophage lysates. The lysosome pellet was extracted with water and the resulting lysosomal membranes were recovered and assayed (with or without HDM peptides) for ATPase activity using a commercially available kit.

RAW264.7 cells = experiment: Binding of FITC-conjugated LPS to RAW 264.7 cells (flow cytometry); format: cell-based, murine; settings: 0.1-10 μg/mL, 20 min at 4° C.
Description: (§1) FIG. 9 is a graphical representation showing LPS neutralization by FhHDM-1. The ability of FhHDM-1 (Δ), FhHDM-1 p1 (●) or FhHDM-1 p3 (▪) to bind to LPS was investigated by (A) incubating a range of concentrations of proteins (0.02-2 μg/well) in an LPS-coated (100 ng/well) microtitre plate. Bound peptides were detected by ELISA using rabbit anti-FhHDM-1 as a primary antibody. (B) FhHDM-1 or derived peptides (0.1 μg) were incubated in the presence of LPS (0.05-5 μg/well) and bound peptides measured as described above. Binding of peptides to the LPS-immobilized plates was expressed as a percentage of that measured for 2 μg (for panel A) or 0.1 μg (for panel B) of FhHDM-1. Data are the means±SD from three separate experiments. (C) FhHDM-1 and FhHDM-1 p3 but not FhHDM-1 p1 reduced the interaction between LPS and LBP as effectively as LL-37. LPS-coated microtitre plates were incubated with 5 μg/well of LL-37, FhHDM-1 or derived peptides for 1 h prior to the addition of 10% human sera in PBS. Interaction of LBP with LPS was measured by ELISA using an anti-LBP primary antibody and expressed as a percentage of that detected for 10% sera in the absence of added peptides. Data are the mean±SD of three separate experiments. Statistical significance was calculated using the student t-test and represent a comparison to the binding of 10% sera to immobilized LPS. (D) Binding of FITC-conjugated LPS to RAW264.7 cells was inhibited by LL-37, FhHDM-1 and peptides. […] The binding of FITC-LPS was analyzed by flow cytometry. LPS binding was expressed as a percentage of the mean fluorescence obtained for the addition of FITC-LPS to cells in the absence of peptides. […] Two hours later, sera was collected and serum levels of TNF and (F) IL-10 measured by ELISA. (G) Peritoneal macrophages were isolated, cultured unstimulated in media overnight and then levels of TNF and (H) IL-10 in the culture measured by ELISA. […]
The effect of FhHDM-1 and derived peptides on the binding of FITC-LPS to CD14+ cells was determined by flow cytometry of the murine macrophage cell line RAW264.7. […]

[2] = test system: interaction of LPS with LPS-binding protein (LBP); experiment: Assay for the interaction of LPS with LBP (ELISA); set-up: species or system mouse; settings: 5 μg/well, 1 h before 10% sera; ELISA with anti-LBP
Description: as §1
The ability of FhHDM-1 and derived peptides to block the interaction of LPS with LPB was assessed by ELISA using an anti-LBP primary antibody. […]

| Molecule | ATPase activity associated with lysosomal membranes [1] | binding of FITC-LPS to RAW264.7 macrophages (RAW264.7 cells) | interaction between LPS and LBP [2] |
| --- | --- | --- | --- |
| KARDRAMAYLAKDNLGEKITEVITILLNRL (FhHDM-1 peptide 1 comprising a truncated amphipathic helix contained in FhHDM-1) [FhHDM-1 p1, peptide in which the amphipathic helix is truncated] | did not inhibit ATPase activity | reduced binding of FITC-LPS to the cells in a dose-dependent manner albeit to a lesser extent | did not block |
| B1 | did not inhibit ATPase activity | reduced binding of FITC-LPS to the cells in a dose-dependent manner albeit to a lesser extent | significantly reduced |
